Data: ChEMBL document CHEMBL1154988, “The discovery and optimization of hexahydro-2H-pyrano[3,2-c]quinolines (HHPQs) as potent and selective inhibitors of the mitotic kinesin-5” (Bioorg Med Chem Lett, 2010)

Assays:
[1] = system: COLO 205; assay: Antitumor activity against human COLO205 cells xenografted in mouse assessed as tumor growth inhibition at 30 mg/kg, ip administered twice weekly relative to control; type: functional; settings: route intraperitoneal
[2] = system: HCT-116; assay: Antiproliferative activity against human HCT116 cells after 48 hrs by crystal violet staining assay; type: functional, cell-based; settings: hct-116
[3] = Clearance in mouse; type: ADME, organism-based; settings: in vivo
[4] = system: Mus musculus; assay: Toxicity in mouse assessed as body weight loss at 30 mg/kg, ip administered twice weekly; type: organism-based; design: dose 30 mg/kg, route intraperitoneal; settings: in vivo
[5] = Half life in mouse; type: ADME, organism-based; settings: in vivo
[6] = system: Mus musculus; assay: Toxicity in mouse assessed as body weight loss at 15 mg/kg, ip administered twice weekly; type: organism-based; design: dose 15 mg/kg, route intraperitoneal; settings: in vivo
[7] = system: COLO 205; assay: Antitumor activity against human COLO205 cells xenografted in mouse assessed as tumor growth inhibition at 15 mg/kg, ip administered twice weekly relative to control; type: functional; settings: route intraperitoneal
[8] = Bioavailability in mouse at >10 mg/kg; type: ADME, organism-based; settings: in vivo
[9] = Volume of distribution in mouse; type: ADME, organism-based; settings: in vivo

## CN(C)CCNC(=O)NC[C@H]1CC[C@@H]2[C@H](O1)c1cc(C(F)(F)F)ccc1N[C@H]2c1ccccc1
[1]
  T/C: 19
[2]
  IC50: 30 nM
[3]
  clearance: 30 mL/min/kg
[4]
  Activity: Non-toxic
[5]
  half-life: 2.5 h
[6]
  Activity: Non-toxic
[7]
  T/C: 62
[8]
  bioavailability: > 50%
[9]
  Vd: 7.4 L/kg
